Patent US5250539A, “Hexahydrobenzo[f]quinolinones” (priority 1991, dated 1993)

Molecular target: T1, 5α-Reductase (Homo sapiens, UniProt P18405)
T1 construct: host or cells: Hs68 human genital skin fibroblasts
T1 sequence (P18405 1-259): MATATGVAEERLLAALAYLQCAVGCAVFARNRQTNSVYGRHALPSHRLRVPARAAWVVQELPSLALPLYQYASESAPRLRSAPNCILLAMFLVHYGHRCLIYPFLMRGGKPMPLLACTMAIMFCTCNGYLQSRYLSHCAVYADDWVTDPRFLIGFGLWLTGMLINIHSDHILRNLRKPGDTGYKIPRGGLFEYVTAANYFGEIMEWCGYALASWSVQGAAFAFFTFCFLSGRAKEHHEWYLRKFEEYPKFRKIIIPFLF
Experiment: Inhibition of 5α-reductase in Hs68 human genital skin fibroblasts (conversion of labelled testosterone, TLC)
Format: cell-based
Details: 1.0 μM test compound; Hs68 cells; 12 μM testosterone; 4 h; read-out: % Inhibition
Experimental: Cell Culture: 5α-Reductase activity was measured using Hs68 human genital skin fibroblasts which were originally purchased from the American Type Culture Collection (Rockville, Md.). The cells were grown in Dulbecco's Modified Eagle's Medium (DMEM) plus 10% stripped fetal bovine serum which was supplemented with amphotericin B (0.25 μg/ml) and gentamicin (25.0 μg/ml) (GIBCO, Grand Island, N.Y.). The serum was stripped of endogenous steroids by incubation with dextran-coated charcoal prior to its addition to the media. The cells were maintained at 37° C. in an atmosphere of 95% air, 5% CO2 and were passaged every 7-10 days by exposure to a trypsin-EDTA solution (0.025% trypsin, 0.265 mM EDTA). Prior to the assay the Hs68 cells were harvested and plated in Falcon 6-well plates (Becton Dickinson Labware, Lincoln Park, N.J.) at a density of 6×10^4 cells per well. The cells were allowed to grow for 4-5 days or until they reached approximately 80% confluence.
Assay Method I: The substrate was prepared by dissolving unlabeled testosterone (Sigma Chemical Co., St. Louis, Mo.) in absolute ethanol followed by the addition of [7-^3 H (N)]-testosterone (23.3 Ci/mmole, New England Nuclear, Boston, Mass.). The steroid solution was taken to dryness under a stream of nitrogen and then reconstituted in media.
Assay Method II: The substrate used for this method was [^14 C]-testosterone (50 mCi/mmol) (New England Nuclear, Boston, Mass.). An aliquot of the substrate was taken to dryness under a stream of nitrogen. After the addition of 30 μl of ethanol, the testosterone was brought up in an appropriate volume of media.
Sample Preparation: The test compounds were dissolved in absolute ethanol in order to achieve the desired concentration. Subsequent dilutions of the test compounds with media were performed by the Biomek 1000 Automated Laboratory Workstation (Beckman Instruments, Palo Alto, Calif.). The existing media in the sample wells was aspirated and replaced with fresh media. Test compound was then added to the wells followed by the addition of 0.5 ml of the substrate. The volume of the incubation mixture was maintained at 2.0 ml. The final substrate concentration was 12 μM. The concentration of the test compounds ranged from 0.001-15 μM. An additional three wells (background) containing media and substrate but no cells were also included to account for the non-enzymatic metabolism of the substrate. The plates were returned to the incubator and incubated for four hours.
At the end of the incubation the media was collected and transferred to an extraction tube containing 5 ml of tolueneethanol (9:1), to which has been added 40-250 μg each of unlabeled carrier steroids (estriol, estradiol, estrone, 5α-androstan-3α,17β-diol, 5α-androstan-3β,17β-diol, 4-androstene-3,17-dione, 5α-androstan-3,17-dione, testosterone, and 5α-dihydrotestosterone) (Steraloids, Inc. Wilton, N.H.). In the case of Assay Method I the extraction tube also contained 1,000 and 10,000 dpm of [4-^14 C]-dihydrotesterone (50-60 mCi/mmol) and [4-^14 C]-testosterone (50 mCi/mmol) (New England Nuclear, Boston, Mass.), respectively. The [^14 C]-steroids were included as recovery standards to quantify procedural losses. A small amount of NaCl was also added to the extraction tubes to prevent foaming. The samples were vortexed for approximately 30 seconds and then centrifuged for 10 minutes at 500×g. The organic phase was collected and the samples taken to dryness, redissolved in dichloromethane-methanol (9:1) and were analyzed by thin layer chromatography using one of the methods described below.

| SMILES | inhibition at 1 µM [%] |
| --- | --- |
| CN1C(=O)CCC2=C1CCc1ccccc12 [Example 7, 4-methyl-1,2,3,4,5,6,-hexahydrobenzo[f]quinolin-3-one] | 48 |
| O=C1CCC2=C(CCc3cc(Cl)ccc32)N1 [Example 10, 8-chloro-1,2,3,4,5,6-hexahydrobenzo[f]quinolin-3-one] | 81 |
| COc1ccc2c(c1)CCC1=C2CCC(=O)N1 [Example 11, 8-methoxy-1,2,3,4,5,6-hexahydrobenzo[f]quinolin-3-one] | 20 |
| O=C1CCC2=C(CCc3cccc(Br)c32)N1 [Example 16, 10-bromo-1,2,3,4,5,6-hexahydrobenzo[f]quinolin-3-one] | 14 |
| O=C1CCC2=C(CCc3cccc(Cl)c32)N1 [Example 17, 10-chloro-1,2,3,4,5,6-hexahydrobenzo[f]quinolin-3-one] | 0.3 |
| O=C1CCC2=C(CCc3c(F)cccc32)N1 [Example 18, 7-fluoro-1,2,3,4,5,6-hexahydrobenzo[f]quinolin-3-one] | 36 |
| CN1C(=O)CCC2=C1CCc1c(F)cccc12 [Example 19, 7-fluoro-4-methyl-1,2,3,4,5,6-hexahydrobenzo[f]quinolin-3-one] | 61 |
| CN1C(=O)CCC2=C1CCc1ccc(F)cc12 [Example 21, 9-fluoro-4-methyl-1,2,3,4,5,6-hexahydrobenzo[f]quinolin-3-one] | 60 |
| CN1C(=O)CCC2=C1CCc1cccc(F)c12 [Example 22, 10-fluoro-4-methyl-1,2,3,4,5,6-hexahydrobenzo[f]quinolin-3-one] | 35 |
| O=C1CCC2=C(CCc3cc(F)ccc32)N1Cc1ccccc1 [Example 23, 8-fluoro-4-benzyl-1,2,3,4,5,6-hexahydrobenzo[f]quinolin-3-one] | 37 |
| CCN1C(=O)CCC2=C1CCc1cc(F)ccc12 [Example 24, 8-fluoro-4-ethyl-1,2,3,4,5,6-hexahydrobenzo[f]quinolin-3-one] | 31 |
| COc1ccc2c(c1)C1=C(CC2)NC(=O)CC1 [Example 26, 9-methoxy-1,2,3,4,5,6-hexahydrobenzo[f]quinolin-3-one] | 12 |
| COc1cccc2c1C1=C(CC2)NC(=O)CC1 [Example 27, 10-methoxy-1,2,3,4,5,6-hexahydrobenzo[f]quinolin-3-one] | 0 |
| COc1cc2c(cc1OC)C1=C(CC2)NC(=O)CC1 [Example 28, 8,9-dimethoxy-1,2,3,4,5,6-hexahydrobenzo[f]quinolin-3-one] | 33 |
| Cc1cccc2c1C1=C(CC2)NC(=O)CC1 [Example 29, 10-methyl-1,2,3,4,5,6-hexahydrobenzo[f]quinolin-3-one] | 41 |

Same assay, conditions: Hs68

| SMILES | inhibition at 1 µM [%] |
| --- | --- |
| O=C1CCC2=C(CCc3cccc(F)c32)N1 [Example 20, 10-fluoro-1,2,3,4,5,6-hexahydrobenzo[f]quinolin-3-one] | 22 |
